In patent publication US4597900A, “Des^2 -glycine^8 -des^22 -calcitonin” (Armour Pharmaceutical Co., priority 1983, dated 1986):
Where a SMILES comes first, the peptide text is derived from it. Bridges are numbered along the chain shown (N, C = ends).

System: serum calcium concentration
Experiment: Biological assay of calcitonin analogs in vivo: reduction of serum calcium concentration, 2x2 parallel line assay
Design: species or system Rats
Description: The biological potency of [Des-Serine^2 -Glycine^8 -Des-Tyrosine^22 ]salmon calcitonin was determined by comparing the reduction of serum calcium concentration which followed administration by graded doses of [Des-Ser^2 -Gly^8 -Des-Tyr^22 ]SCT and synthetic salmon calcitonin standard. Rats were divided into four groups of seven animals, and each group was assigned at random to a dose of standard or test solution. Low and high doses were chosen from the linear portion of the dose-response curve. For the salmon calcitonin standard, the values were 0.7 and 2.1 ng. peptide/100 g. body weight (BW). This dose approximates 3 and 9 MU/100 g. BW. Peptides were given by subcutaneous injection (0.2 ml/100 g. BW) and blood was withdrawn 1 hour later for serum calcium determination. Sera are processed and analyzed within two hours of collection. […]. Results were analyzed by a 2×2 parallel line assay [Gaddum, J. H., J. Pharm. Pharmacol., 6, 345 (1953)]. The standard salmon calcitonin used was independently determined to contain greater than 4,000 IU/mg. [Des-Ser^2 -Gly^8 -Des-Tyr^22 ]SCT assayed at 6900 IU/mg.

## CC(C)C[C@H](NC(=O)[C@H](CCCCN)NC(=O)CNC(=O)[C@H](CC(C)C)NC(=O)[C@@H](NC(=O)[C@@H]1CSSC[C@H](N)C(=O)N[C@@H](CO)C(=O)N[C@@H](CC(N)=O)C(=O)N[C@@H](CC(C)C)C(=O)N[C@@H](CO)C(=O)N[C@@H]([C@@H](C)O)C(=O)N1)C(C)C)C(=O)N[C@@H](CO)C(=O)N[C@@H](CCC(N)=O)C(=O)N[C@@H](CCC(=O)O)C(=O)N[C@@H](CC(C)C)C(=O)N[C@@H](Cc1c[nH]cn1)C(=O)N[C@@H](CCCCN)C(=O)N[C@@H](CC(C)C)C(=O)N[C@@H](CCC(N)=O)C(=O)N[C@H](C(=O)N[C@@H](Cc1ccc(O)cc1)C(=O)N1CCC[C@H]1C(=O)N[C@@H](CCCNC(=N)N)C(=O)N[C@H](C(=O)N[C@@H](CC(N)=O)C(=O)N[C@H](C(=O)NCC(=O)N[C@@H](CO)C(=O)NCC(=O)N[C@H](C(=O)N1CCC[C@H]1C(N)=O)[C@@H](C)O)[C@@H](C)O)[C@@H](C)O)[C@@H](C)O [standard salmon calcitonin, Salmon calcitonin]
Standard salmon calcitonin used in the assay
  potency of standard, independently determined: greater than 4,000 IU/mg

## CC(C)C[C@H](NC(=O)CNC(=O)[C@@H]1CSSC[C@H](N)C(=O)N[C@@H](CC(N)=O)C(=O)N[C@@H](CC(C)C)C(=O)N[C@@H](CO)C(=O)N[C@@H]([C@@H](C)O)C(=O)N1)C(=O)NCC(=O)N[C@@H](CCCCN)C(=O)N[C@@H](CC(C)C)C(=O)N[C@@H](CO)C(=O)N[C@@H](CCC(N)=O)C(=O)N[C@@H](CCC(=O)O)C(=O)N[C@@H](CC(C)C)C(=O)N[C@@H](Cc1c[nH]cn1)C(=O)N[C@@H](CCCCN)C(=O)N[C@@H](CC(C)C)C(=O)N[C@@H](CCC(N)=O)C(=O)N[C@H](C(=O)N1CCC[C@H]1C(=O)N[C@@H](CCCNC(=N)N)C(=O)N[C@H](C(=O)N[C@@H](CC(N)=O)C(=O)N[C@H](C(=O)NCC(=O)N[C@@H](CO)C(=O)NCC(=O)N[C@H](C(=O)N1CCC[C@H]1C(N)=O)[C@@H](C)O)[C@@H](C)O)[C@@H](C)O)[C@@H](C)O [[Des-Ser^2 -Gly^8 -Des-Tyr^22]SCT, [Des-Serine^2 -Glycine^8 -Des-Tyrosine^22]salmon calcitonin] (H-CNLSTCGLGKLSQELHKLQTPRTNTGSGTP-NH2; disulfide 1-6)
rats, subcutaneous injection, blood withdrawn 1 hour later, compared with synthetic salmon calcitonin standard
  biological potency (reduction of serum calcium concentration): 6900 IU/mg
